Laboratory results reported in the NIST ThermoML archive (doi:10.1016/j.fluid.2014.04.003).
Numbers after ± are expanded uncertainties.

Conditions: Crystal; DTA

CC(C)Cc1ccc([C@H](C)C(=O)O)cc1.CCCCCCCCNC[C@H](O)[C@@H](O)[C@H](O)[C@H](O)CO [S-ibuprofen n-octyl-d-glucamine salt]
Normal melting temperature: 139.26 ± 0.39 °C
